Results on three compounds are retold here after patent US12220465B2, “Compositions and methods for targeted treatment and imaging of cancer or tumors” (Washington University, priority 2018, dated 2025).

The term IC50 denotes the concentration at which inhibition is half-maximal.

In data set [1] the test system is EPCs. The experiment in a line: MTT survival assay of EPCs treated with agent. The data set is classed as cell-based. The following applies: 48 hours; for effect on survival of EPCs: increasing concentrations. How it is done: (§1) Anticancer agents have preferential cytotoxic effects on cancer cells compared to non-malignant cells (such as EPCs). Therefore we tested the effect of BTZ (anti-cancer drug) on the survival of malignant MM cells (MM1s and H929) and on EPCs, in which cells were treated with increasing concentrations of Bortezomib, and the killing effect was evaluated after 48 hours using MTT assay (FIGS. 8A and B). Also EPCs were treated with and without high-dose of BTZ (50 nM) and we measured the in vitro migration of the EPCs towards MM-conditioned media, using a Boyden chamber migration assay, and the number of migrating EPCs was analyzed by flow cytometry (FIG. 8C).
Prodrugs such as TC and BPA are inert agents that are not supposed to have effect by them selves on cancer or normal cell survival, but when activated using positron emission and neutrons, respectively, these agents become active drugs and kill the cell that they reside in and adjacent cells next to it. We tested the effect of TC and BPA (prodrugs) on the survival of EPCs, in which cells were treated with increasing concentrations of these, and the killing effect was evaluated after 48 hours using MTT assay (FIGS. 9A and 10A). […] Also EPCs were treated with and without increasing doses of TC and BPA and we measured the in vitro migration of the EPCs towards MM-conditioned media, using a Boyden chamber migration assay, and the number of migrating EPCs was analyzed by flow cytometry (FIGS. 9C and 10C).
These agents have no cytotoxicity effect, to confirm that we tested the effect of LS-542, (as a model of an imaging agent) on survival of EPCs, in which cells were treated with increasing concentrations of these, and the killing effect was evaluated after 48 hours using MTT assay (FIG. 11A). […] Also EPCs were treated with and without increasing doses of LS-542 and we measured the in vitro migration of the EPCs towards MM-conditioned media, using a Boyden chamber migration assay, and the number of migrating EPCs was analyzed by flow cytometry (FIG. 11C).

For data set [2], the system named is EPCs. The experiment in a line: Boyden chamber migration of agent-treated EPCs towards MM-conditioned media. Conditions: for effect on migration of EPCs to tumor: increasing doses, towards MM-conditioned media. The data set is classed as cell-based. How it is done:
as §1
Prodrugs such as TC and BPA are inert agents that are not supposed to have effect by them selves on cancer or normal cell survival, but when activated using positron emission and neutrons, respectively, these agents become active drugs and kill the cell that they reside in and adjacent cells next to it. We tested the effect of TC and BPA (prodrugs) on the survival of EPCs, in which cells were treated with increasing concentrations of these, and the killing effect was evaluated after 48 hours using MTT assay (FIGS. 9A and 10A). And to confirm the loading of EPCs with TC and BPA, we treated the EPCs with increasing doses of TC and BPA, digested the cells with nitric acid, and used ICP-MS to detect the level of Titanium and boron in the EPCs, respectively (FIGS. 9B and 10B). Also EPCs were treated with and without increasing doses of TC and BPA and we measured the in vitro migration of the EPCs towards MM-conditioned media, using a Boyden chamber migration assay, and the number of migrating EPCs was analyzed by flow cytometry (FIGS. 9C and 10C).
These agents have no cytotoxicity effect, to confirm that we tested the effect of LS-542, (as a model of an imaging agent) on survival of EPCs, in which cells were treated with increasing concentrations of these, and the killing effect was evaluated after 48 hours using MTT assay (FIG. 11A). And to confirm the loading of EPCs with LS-542, we treated the EPCs with increasing doses of LS-542, and the amount of labeling was measure by the mean-flurescence intensity of the dye by flow cytometry (FIG. 11B). Also EPCs were treated with and without increasing doses of LS-542 and we measured the in vitro migration of the EPCs towards MM-conditioned media, using a Boyden chamber migration assay, and the number of migrating EPCs was analyzed by flow cytometry (FIG. 11C).

The subject of data set [3] is malignant MM cells (MM1s and H929). The experiment in a line: MTT survival assay of malignant MM cells treated with Bortezomib. The data set is classed as cell-based. Conditions: Homo sapiens, 48 hours, read-out: IC50, killing of myeloma cells. The protocol:
as §1
(In general: Tetrazolium assays rely on reduction of a dye to a coloured formazan, in cell work by metabolically active cells.)

Data set [4] relates to EPCs. The following applies: calcein-UV and PI, flow cytometry.
Description: The effect of Tc on the cell vitality/viability by staining the cells with viability dye (calcein-UV) and propidium iodide (PI) and analyzing by flow cytometry was tested.

As for `N[C@@H](Cc1ccc(B(O)O)cc1)C(=O)O` [BPA, 4-Borono-L-phenylalanine], in the data set with EPCs [1], the “effect on survival of EPCs” value is given as “no effect on the survival”. Also, in the data set on EPCs [2], the “effect on migration of EPCs to tumor” value is “no effect”.

With `CC(C)C[C@H](NC(=O)[C@H](Cc1ccccc1)NC(=O)c1cnccn1)B(O)O` [BTZ, Bortezomib], the “BTZ concentration up to which EPCs are not sensitive (survival)” value in the data set with EPCs [1] was “up to 50 nM”. Further, the “effect of loading on migration of EPCs towards cancer cells” value with EPCs [2] (BTZ 50 nM for 2 hrs, MM-conditioned media) is given as “did not affect the migration of EPCs”. Besides, in data set [3], the IC50 was 5 nM.

On to `[Cl-].[Cl-].[Ti+4].c1cc[cH-]c1.c1cc[cH-]c1` [Titanocene], for which the “effect on survival of EPCs” value with EPCs [1] is “no effect on the survival”. In the data set on EPCs [4], the “concentration up to which Tc is not toxic to EPCs” value is listed as “up to 150 μM”. The “effect on migration of EPCs to tumor” value in the data set on EPCs [2] was “no effect”. In addition, the “effect on migration of EPCs to conditioned MM media” value in the data set with EPCs [2] (same concentration range, up to 150 μM) was “did not affect the migration of EPCs”.
